Article PMC12446458, “Structural basis for DNA break sensing by human MRE11-RAD50-NBS1 and its regulation by telomeric factor TRF2” (Nature Communications, 2025)

B1: 64 bp Myb DNA, 6-FAM (dsDNA)
DNA 1: TCTAGGGTTAGGGTTAGATTAACGCTTCTGGAGAAACTCAACGAGCTCTAACCCTAACCCTAGA
DNA 2: TCTAGGGTTAGGGTTAGAGCTCGTTGAGTTTCTCCAGAAGCGTTAATCTAACCCTAACCCTAGA

Legend:
[1] = molecular target: T1, MR complex (human MRE11-RAD50) (Homo sapiens, UniProt Q92878); assay: NADH-coupled ATPase assay; assay type: biochemical; conditions: 0.15 mM ATP, 2 mM MgCl2, 1 mM MnCl2, pH 7.5, 37 °C; with and without 64 bp Myb DNA; rate in figure only
T1 construct: MR complex, no NBS1; with Double-strand break repair protein MRE11
T1 sequence (Q92878 1-1312): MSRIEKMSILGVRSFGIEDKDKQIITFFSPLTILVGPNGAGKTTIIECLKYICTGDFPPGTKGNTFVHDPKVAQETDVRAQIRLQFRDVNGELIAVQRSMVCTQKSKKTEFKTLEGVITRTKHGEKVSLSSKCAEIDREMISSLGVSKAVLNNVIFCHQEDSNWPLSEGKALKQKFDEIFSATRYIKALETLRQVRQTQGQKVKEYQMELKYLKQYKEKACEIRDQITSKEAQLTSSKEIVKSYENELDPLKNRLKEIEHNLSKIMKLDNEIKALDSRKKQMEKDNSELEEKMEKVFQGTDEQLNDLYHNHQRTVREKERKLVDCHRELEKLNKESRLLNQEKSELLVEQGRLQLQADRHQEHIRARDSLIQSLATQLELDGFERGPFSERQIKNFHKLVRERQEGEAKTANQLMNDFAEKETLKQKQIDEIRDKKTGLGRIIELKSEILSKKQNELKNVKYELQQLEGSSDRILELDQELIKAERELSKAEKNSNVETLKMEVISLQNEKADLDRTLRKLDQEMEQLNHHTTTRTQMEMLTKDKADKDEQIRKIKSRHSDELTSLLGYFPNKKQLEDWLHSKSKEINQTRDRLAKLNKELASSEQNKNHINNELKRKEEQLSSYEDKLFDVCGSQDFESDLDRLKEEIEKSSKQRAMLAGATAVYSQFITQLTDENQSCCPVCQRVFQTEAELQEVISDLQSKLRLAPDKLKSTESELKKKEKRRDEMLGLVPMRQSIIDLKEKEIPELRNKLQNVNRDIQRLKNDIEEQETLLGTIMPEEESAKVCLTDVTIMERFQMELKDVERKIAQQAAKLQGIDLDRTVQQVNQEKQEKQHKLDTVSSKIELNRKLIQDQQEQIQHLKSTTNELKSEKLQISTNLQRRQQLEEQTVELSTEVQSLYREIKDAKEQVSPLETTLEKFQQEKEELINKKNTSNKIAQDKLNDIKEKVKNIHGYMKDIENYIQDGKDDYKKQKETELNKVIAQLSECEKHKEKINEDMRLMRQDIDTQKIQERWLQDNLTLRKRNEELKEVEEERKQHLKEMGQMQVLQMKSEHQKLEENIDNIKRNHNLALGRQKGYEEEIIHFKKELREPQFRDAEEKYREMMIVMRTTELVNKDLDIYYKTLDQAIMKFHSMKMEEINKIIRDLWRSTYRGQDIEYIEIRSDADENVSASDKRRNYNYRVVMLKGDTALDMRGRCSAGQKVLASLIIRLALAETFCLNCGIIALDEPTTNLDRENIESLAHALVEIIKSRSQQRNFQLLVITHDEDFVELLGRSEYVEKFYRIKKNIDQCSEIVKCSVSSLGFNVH
T1 sequence (P49959 2-708 partner): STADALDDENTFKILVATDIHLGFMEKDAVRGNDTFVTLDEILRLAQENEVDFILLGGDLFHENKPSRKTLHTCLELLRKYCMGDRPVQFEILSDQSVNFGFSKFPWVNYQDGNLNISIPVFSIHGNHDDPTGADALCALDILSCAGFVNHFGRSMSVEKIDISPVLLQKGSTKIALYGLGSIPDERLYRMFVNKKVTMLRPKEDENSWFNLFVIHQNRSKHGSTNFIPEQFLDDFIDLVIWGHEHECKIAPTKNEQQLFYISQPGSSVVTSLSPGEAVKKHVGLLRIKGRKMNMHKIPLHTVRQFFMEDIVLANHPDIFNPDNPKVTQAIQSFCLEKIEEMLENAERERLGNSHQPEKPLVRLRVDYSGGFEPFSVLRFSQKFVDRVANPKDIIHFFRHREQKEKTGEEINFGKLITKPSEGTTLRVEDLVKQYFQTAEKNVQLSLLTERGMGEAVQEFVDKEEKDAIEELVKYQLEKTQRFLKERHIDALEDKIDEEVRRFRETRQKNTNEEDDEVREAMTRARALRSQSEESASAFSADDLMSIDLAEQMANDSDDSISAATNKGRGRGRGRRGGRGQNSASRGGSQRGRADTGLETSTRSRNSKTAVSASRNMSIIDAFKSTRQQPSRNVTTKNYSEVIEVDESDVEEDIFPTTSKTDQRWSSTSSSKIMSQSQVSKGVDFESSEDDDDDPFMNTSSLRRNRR

[2] = molecular target: T2, MRN complex (human MRE11-RAD50-NBS1) (Homo sapiens, UniProt Q92878); assay: NADH-coupled ATPase assay; assay type: biochemical; conditions: 0.15 mM ATP, 2 mM MgCl2, 1 mM MnCl2, pH 7.5, 37 °C; with and without 64 bp Myb DNA; rate in figure only; MRE11 wild type or H129N not clearly told for this assay
T2 construct: Expi293F (MRE11 H129N) or Hi5 insect cells (wild type); with Double-strand break repair protein MRE11; Nibrin
T2 sequence (Q92878 1-1312): T1 sequence (Q92878 1-1312)
T2 sequence (P49959 2-708 partner): T1 sequence (P49959 2-708 partner)
T2 sequence (O60934 1-754 partner): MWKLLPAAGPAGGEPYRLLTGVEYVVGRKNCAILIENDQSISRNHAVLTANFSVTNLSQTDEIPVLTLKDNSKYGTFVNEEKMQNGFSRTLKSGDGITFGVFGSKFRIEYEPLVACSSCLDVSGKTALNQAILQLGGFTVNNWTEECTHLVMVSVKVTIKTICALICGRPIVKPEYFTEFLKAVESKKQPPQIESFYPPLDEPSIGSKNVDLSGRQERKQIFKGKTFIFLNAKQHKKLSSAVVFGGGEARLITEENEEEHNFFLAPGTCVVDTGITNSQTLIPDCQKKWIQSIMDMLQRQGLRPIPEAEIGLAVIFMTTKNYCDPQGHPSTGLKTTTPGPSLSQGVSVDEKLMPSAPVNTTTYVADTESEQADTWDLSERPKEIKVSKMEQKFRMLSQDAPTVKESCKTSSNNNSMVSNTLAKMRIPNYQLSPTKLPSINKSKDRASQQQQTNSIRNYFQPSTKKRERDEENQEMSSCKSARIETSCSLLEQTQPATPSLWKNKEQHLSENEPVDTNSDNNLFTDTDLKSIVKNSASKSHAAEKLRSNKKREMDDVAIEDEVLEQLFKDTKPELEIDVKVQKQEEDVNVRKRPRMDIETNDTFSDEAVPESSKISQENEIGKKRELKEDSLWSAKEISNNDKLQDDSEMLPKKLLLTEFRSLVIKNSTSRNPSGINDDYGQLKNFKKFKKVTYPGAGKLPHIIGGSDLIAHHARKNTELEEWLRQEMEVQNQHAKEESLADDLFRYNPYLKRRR

TRF2 full length = TRF2 full length (Homo sapiens, UniProt Q15554 1-542); assay: fluorescence anisotropy; 1 mM ATP, 5 mM Mg2+; two specific binding sites fit; FA: 25 mM HEPES pH 8.0, 100 mM NaCl, 5 mM MgCl2, 0.2 mg/ml BSA, 1 mM DTT, 1 mM ATP unless stated, 30 nM 6-FAM DNA, read over 30 min; temperature not stated; conditions: protein: recombinant; tags: MBP removed (3C); C-terminal His10; chain copies: 2; blunt
Sequence of TRF2 full length (Q15554 whole entry): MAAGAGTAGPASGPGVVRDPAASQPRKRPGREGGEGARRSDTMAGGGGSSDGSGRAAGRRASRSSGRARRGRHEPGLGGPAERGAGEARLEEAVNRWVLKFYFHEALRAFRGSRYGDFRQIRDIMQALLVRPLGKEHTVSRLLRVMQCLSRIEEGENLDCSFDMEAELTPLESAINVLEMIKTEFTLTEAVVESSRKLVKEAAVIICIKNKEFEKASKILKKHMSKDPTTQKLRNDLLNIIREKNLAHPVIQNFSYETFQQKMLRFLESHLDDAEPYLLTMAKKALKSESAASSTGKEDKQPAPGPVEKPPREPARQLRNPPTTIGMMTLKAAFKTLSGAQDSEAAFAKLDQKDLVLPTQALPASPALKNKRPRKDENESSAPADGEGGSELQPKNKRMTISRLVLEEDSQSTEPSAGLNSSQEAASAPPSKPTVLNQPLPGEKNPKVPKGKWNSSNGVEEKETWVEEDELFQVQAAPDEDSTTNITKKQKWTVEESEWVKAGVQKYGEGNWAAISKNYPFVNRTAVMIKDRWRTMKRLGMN

Molecule	NADH-coupled ATPase assay [1]	NADH-coupled ATPase assay [2]	Kd (TRF2 full length) [nM]
Nc1ncnc2c1ncn2[C@@H]1O[C@H](COP(=O)(O)OP(=O)(O)OP(=O)(O)O)[C@@H](O)[C@H]1O [ATP]	ATPase activity of MR(N) complex stimulated by DNA binding	The purified MRN complex showed the characteristic DNA-stimulated ATPase activity	
B1			121
